How the values were obtained:
[1] = tested on: normotensive rats (Alderley Park strain, male animals); experiment: Measurement of blood pressure in conscious rats by radio-telemetry; type: in vivo, rat; details: single dose p.o. of a combination of 1.5 mg/kg of VTK-1 and 25 mg/kg of Src-1 vs control citrate buffer vehicle; FIGS. 1-3
Procedure: Blood pressure was measured using commercially-available radio-telemetry equipment (Data Sciences International, Saint Paul, Minn., USA) which provides a means for the remote measurement of the blood pressure (BP), heart rate and activity of a conscious, unrestrained laboratory animal such as a rat. Measurements obtained using this system have the advantage that the test animal is free from stresses induced by surgery and/or restraint.
The equipment comprises a pressure transducer (Code No. TA11PA-C40; hereinafter the ‘pressure transducer implant’) that is implanted into the abdomen of a laboratory rat. The transducer transmits a radio signal indicating the pressure in the aorta of the animal and the signal is detected by a receiver (RA1010) placed under the plastic cage which houses the animal. The signal is recorded and evaluated automatically by pre-written computer software (DataQuest 2.1 that may be installed on a suitable computer such as an IBM-compatible personal computer containing an Intel™ 486 processor). […]
The animals were housed in a facility using a 12 hour cycle of light and dark. […] Blood pressure data were recorded from each animal every 10 minutes throughout each Study.
Typically, on day 1, each of a group of 3 rats was dosed p.o. at approximately 9.00 am with control vehicle and blood pressure data were recorded during the ensuing 24 hour period. […]

dog coronary arteries = details: cited from earlier work
conscious rats = details: cited from earlier work
anaesthetized rats = details: 15 μg/kg bFGF; cited from earlier work

Compound: CC(=O)N1CCN(CCOc2cc(OC(C)C)c3c(Nc4c(Cl)ccc5c4OCO5)ncnc3c2)CC1 [Src-1, 7-[2-(4-acetylpiperazin-1-yl)ethoxy]-4-(6-chloro-2,3-methylenedioxyanilino)-5-isopropoxyquinazoline]
- contrasting blood pressure effects (diastolic blood pressure profile) [1]: substantially counter-balanced

Compound: COc1cc2c(Oc3ccc4[nH]c(C)cc4c3F)ncnc2cc1OCCCN1CCCCC1 [VTK-1, 4-(4-fluoro-2-methylindol-5-yloxy)-6-methoxy-7-(3-piperidinopropoxy)quinazoline]
- contrasting blood pressure effects (diastolic blood pressure profile) [1]: substantially counter-balanced

Compound: VEGF
- effect on dog coronary arteries in vitro (dog coronary arteries): dilate dog coronary arteries
- return to normal blood pressure (conscious rats; VEGF 250 μg/kg, conscious rats): ≤ 20 min
- effect on blood pressure in the conscious rat (conscious rats; conscious rat): induce hypotension

Compound: bFGF: basic fibroblast growth factor
- blood pressure returning to normal (anaesthetized rats): ≤ 30 min

From patent US20100029673A1, “THERAPEUTIC AGENTS COMPRISING AN ANTI-ANGIOGENIC AGENT IN COMBINATION WITH AN SRC-INHIBITOR AND THEIR THERAPEUTIC USE” (AstraZeneca AB, priority 2003, published 2010)
